Test results reported in ChEMBL document CHEMBL1201862, “PubChem BioAssay data set” (2004).
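48-hour exposure; five concentrations; linearly interpolated endpoints. GI50: concentration for 50% inhibition of growth.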 Active and inactive are the calls of the source. Cut-off read from the data, not from the text of the source: active = GI50 up to about 1.1 µM and inactive = higher.

Legend:
Test in all cases: NCI tumour cell line growth inhibition, 48 h
CAKI-1 = system: CAKI-1
CCRF-CEM = system: CCRF-CEM
COLO 205 = system: COLO 205
HCC 2998 = system: HCC 2998
HL-60 = system: HL-60
IGROV-1 = system: IGROV-1
LOX IMVI = system: LOX IMVI
M14 = system: M14
MDA-MB-231 = system: MDA-MB-231
MDA-MB-435 = system: MDA-MB-435
NCI-H522 = system: NCI-H522
OVCAR-3 = system: OVCAR-3
OVCAR-4 = system: OVCAR-4
OVCAR-8 = system: OVCAR-8
SF-295 = system: SF-295
SW-620 = system: SW-620
T47D = system: T47D
U-251 = system: U-251
UO-31 = system: UO-31
HOP-62 = system: HOP-62

SMILES | GI50 (CAKI-1) | GI50 (CCRF-CEM) | GI50 (COLO 205) | GI50 (HCC 2998) | GI50 (HL-60) | GI50 (IGROV-1) | GI50 (LOX IMVI) | GI50 (M14) | GI50 (MDA-MB-231) | GI50 (MDA-MB-435) | GI50 (NCI-H522) | GI50 (OVCAR-3) | GI50 (OVCAR-4) | GI50 (OVCAR-8) | GI50 (SF-295) | GI50 (SW-620) | GI50 (T47D) | GI50 (U-251) | GI50 (UO-31) | GI50 (HOP-62)
Cc1cc(C)c2c(c1)CC1(Cc3cc(C)c(C)cc3C1=O)C2=O (configuration not stated) | > 100 µM (inactive) | > 100 µM (inactive) | > 100 µM (inactive) | > 100 µM (inactive) | 7.1 µM (inactive) | 90.4 µM (inactive) | > 100 µM (inactive) | 27.7 µM (inactive) | > 100 µM (inactive) | 3.82 µM (inactive) | > 100 µM (inactive) | > 100 µM (inactive) | 77.8 µM (inactive) | > 100 µM (inactive) | > 100 µM (inactive) | 95.7 µM (inactive) | > 100 µM (inactive) | > 100 µM (inactive) | > 100 µM (inactive) | –
C/C=C1/CN2CCc3c([nH]c4ccccc34)[C@@H]2C[C@@H]1Cc1nccc2c1[nH]c1cc(O)ccc12 | 1.73 µM (inactive) | 2.9 µM (inactive) | 2.78 µM (inactive) | 1.42 µM (inactive) | 2.45 µM (inactive) | – | 2.77 µM (inactive) | 2.16 µM (inactive) | 1.64 µM (inactive) | 1.9 µM (inactive) | 1.89 µM (inactive) | 2.39 µM (inactive) | 1.57 µM (inactive) | 1.9 µM (inactive) | 1.9 µM (inactive) | 2.82 µM (inactive) | 2.14 µM (inactive) | 2.19 µM (inactive) | 1.99 µM (inactive) | 1.98 µM (inactive)
Cc1cc2c(cc1Cl)SC(NNC(=O)c1ccncc1)=NS2(=O)=O | > 10 µM (inactive) | > 10 µM (inactive) | > 10 µM (inactive) | > 10 µM (inactive) | > 10 µM (inactive) | > 10 µM (inactive) | > 10 µM (inactive) | > 10 µM (inactive) | > 10 µM (inactive) | > 10 µM (inactive) | > 10 µM (inactive) | > 10 µM (inactive) | > 10 µM (inactive) | > 10 µM (inactive) | > 10 µM (inactive) | > 10 µM (inactive) | > 10 µM (inactive) | > 10 µM (inactive) | – | > 10 µM (inactive)
O=C(ON=C1c2ccccc2C(Br)C(Br)c2ccccc21)c1cc([N+](=O)[O-])cc([N+](=O)[O-])c1 (configuration not stated) | 20.5 µM (inactive) | 0.787 µM (active) | 20.3 µM (inactive) | 29.4 µM (inactive) | 0.158 µM (active) | 2.8 µM (inactive) | 13.9 µM (inactive) | 17.6 µM (inactive) | 19.2 µM (inactive) | 18.5 µM (inactive) | 5.3 µM (inactive) | 19.9 µM (inactive) | 22.2 µM (inactive) | 17.3 µM (inactive) | 35 µM (inactive) | 18.7 µM (inactive) | 35.2 µM (inactive) | 15.8 µM (inactive) | – | 18 µM (inactive)
Cc1ccc(Nc2nc(O)c3[nH]cnc3n2)cc1CO | 15.2 µM (inactive) | 16.1 µM (inactive) | 14.6 µM (inactive) | 15.5 µM (inactive) | 1.7 µM (inactive) | 14.9 µM (inactive) | 19.9 µM (inactive) | 12.8 µM (inactive) | 12.1 µM (inactive) | 15.8 µM (inactive) | 11.6 µM (inactive) | 15.7 µM (inactive) | 17.1 µM (inactive) | 16.6 µM (inactive) | 15.9 µM (inactive) | 17.5 µM (inactive) | 14 µM (inactive) | – | 16 µM (inactive) | –
COC(=O)[C@@]12C(=O)C(C)C(=O)[C@]1(C)C(C)=C[C@H]1[C@]3(C=O)CC[C@H](OC(C)=O)C(C)(C)[C@H]3CC[C@@]12C (some centres not stated) | 93.1 µM (inactive) | 4.06 µM (inactive) | > 100 µM (inactive) | > 100 µM (inactive) | 17.7 µM (inactive) | – | 70.6 µM (inactive) | > 100 µM (inactive) | > 100 µM (inactive) | 97.3 µM (inactive) | 51.9 µM (inactive) | > 100 µM (inactive) | > 100 µM (inactive) | > 100 µM (inactive) | > 100 µM (inactive) | > 100 µM (inactive) | > 100 µM (inactive) | > 100 µM (inactive) | > 100 µM (inactive) | > 100 µM (inactive)
C/C=C/C(CC(O)(C(F)(F)F)C(F)(F)F)=N/NC(N)=S | > 10 µM (inactive) | > 10 µM (inactive) | > 10 µM (inactive) | > 10 µM (inactive) | > 10 µM (inactive) | > 10 µM (inactive) | > 10 µM (inactive) | > 10 µM (inactive) | > 10 µM (inactive) | > 10 µM (inactive) | > 10 µM (inactive) | > 10 µM (inactive) | > 10 µM (inactive) | > 10 µM (inactive) | > 10 µM (inactive) | > 10 µM (inactive) | > 10 µM (inactive) | > 10 µM (inactive) | – | > 10 µM (inactive)
